In ChEMBL document CHEMBL4334442, “Effects of Acetylshikonin on the Infection and Replication of Coxsackievirus A16 in Vitro and in Vivo” (J Nat Prod, 2019):
The source made the active and inactive calls. The rule behind the calls is not given here.

What was measured:
[1] = Cytotoxicity against human RD cells assessed as reduction in cell viability after 12 hrs by CCK8 assay; format: cell-based
[2] = Selectivity index, ratio of CC50 for cytotoxicity against human RD cells to EC50 for antiviral activity against Coxsackievirus A16 TA271 infected in human RD cells; format: toxicity, cell-based; settings: read-out: Ratio CC50/EC50
[3] = test system: Coxsackievirus A16; experiment: Antiviral activity against Coxsackievirus A16 TA271 infected in RD cells at preinfection stage assessed as appearance of cell shrinkage at 0.08 uM/L preincubated with cells for 3 hrs followed by viral infection and measured after 1 hr by inverted microscopic analysis; format: functional, cell-based
[4] = test system: Coxsackievirus A16; experiment: Antiviral activity against Coxsackievirus A16 TA271 infected in RD cells at preinfection stage assessed as cell fragmentation at 0.08 uM/L preincubated with cells for 3 hrs followed by viral infection and measured after 1 hr by inverted microscopic analysis; format: functional, cell-based
[5] = test system: Coxsackievirus A16; experiment: Antiviral activity against Coxsackievirus A16 TA271 infected in RD cells at preinfection stage assessed as increase in intracytoplasmic granules at 0.08 uM/L preincubated with cells for 3 hrs followed by viral infection and measured after 1 hr by inverted microscopic analysis; format: functional, cell-based
[6] = test system: Coxsackievirus A16; experiment: Antiviral activity against Coxsackievirus A16 TA271 infected in RD cells at release stage assessed as cell detachment at 0.08 uM/L preincubated with cells for 1 hr followed by replacement of fresh medium containing compounds after 5 hrs post infection and further incubated for 16 hrs post infection by inverted microscopic analysis; format: functional, cell-based
[7] = test system: Coxsackievirus A16; experiment: Antiviral activity against Coxsackievirus A16 TA271 infected in RD cells assessed as effect on viral load at preinfection stage at 0.08 uM/L preincubated with cells for 3 hrs followed by viral infection for 1 hr and measured after 48 hrs post infection in fresh medium by RT-PCR analysis; format: functional, cell-based
[8] = test system: Coxsackievirus A16; experiment: Antiviral activity against Coxsackievirus A16 TA271 infected in RD cells assessed as effect on viral load at replication stage at 0.08 uM/L preincubated for 1 hr followed by replacement of medium containing compound for 5 hrs and measured after 48 hrs post infection by RT-PCR analysis; format: functional, cell-based
[9] = test system: Coxsackievirus A16; experiment: Antiviral activity against Coxsackievirus A16 TA271 infected in RD cells assessed as log reduction in viral genome copies at 0.08 uM/L preincubated with viral suspension for 2 hrs followed by cell addition and measured at 24 hrs post infection by RT-PCR analysis; format: functional
[10] = test system: Coxsackievirus A16; experiment: Antiviral activity against Coxsackievirus A16 LW614 infected in RD cells assessed as reduction in viral genome copies at 0.08 uM/L preincubated with viral suspension for 2 hrs followed by cell addition and measured at 24 hrs post infection by RT-PCR analysis; format: functional, cell-based
[11] = test system: Coxsackievirus A16; experiment: Antiviral activity against Coxsackievirus A16 TA271 infected in ICR mouse assessed as mouse survival at 0.08 uM/L preincubated with viral suspension for 2 hrs followed by intramuscular administration and measured on day 7 post infection relative to control; format: functional; settings: Enterovirus A, TA271, im
[12] = test system: Coxsackievirus A16; experiment: Antiviral activity against Coxsackievirus A16 TA271 infected in ICR mouse assessed as reduction in viral load in hind limb muscle at 2 mg/kg, im after 3 to 5 days post infection by RT-PCR analysis; format: functional, organism-based
[13] = test system: Coxsackievirus A16; experiment: Antiviral activity against Coxsackievirus A16 TA271 infected in ICR mouse assessed as reduction in viral load in heart at 0.08 uM/L preincubated with viral suspension for 2 hrs followed by intramuscular administration after 3 to 5 days post infection by RT-PCR analysis; format: functional
[14] = test system: Coxsackievirus A16; experiment: Antiviral activity against Coxsackievirus A16 TA271 infected in ICR mouse assessed as reduction in viral load in spinal muscle at 0.08 uM/L preincubated with viral suspension for 2 hrs followed by intramuscular administration after 3 to 5 days post infection by RT-PCR analysis; format: functional
[15] = test system: Coxsackievirus A16; experiment: Antiviral activity against Coxsackievirus A16 TA271 infected in ICR mouse assessed as reduction in inflammatory cell infiltration in spinal muscle at 2 mg/kg, im after 5 days post infection by H and E staining based histopathological analysis; format: functional, organism-based
[16] = test system: Coxsackievirus A16; experiment: Antiviral activity against Coxsackievirus A16 TA271 infected in ICR mouse assessed as reduction in muscle fiber breakage in heart at 2 mg/kg, im after 5 days post infection by H and E staining based histopathological analysis; format: functional, organism-based
[17] = test system: Coxsackievirus A16; experiment: Antiviral activity against Coxsackievirus A16 TA271 infected in ICR mouse assessed as reduction in muscle fiber breakage in hind limb muscle at 2 mg/kg, im after 5 days post infection by H and E staining based histopathological analysis; format: functional, organism-based
[18] = test system: Coxsackievirus A16; experiment: Antiviral activity against Coxsackievirus A16 TA271 infected in ICR mouse assessed as reduction in muscle fiber breakage in spinal muscle at 2 mg/kg, im after 5 days post infection by H and E staining based histopathological analysis; format: functional, organism-based
[19] = test system: Coxsackievirus A16; experiment: Antiviral activity against Coxsackievirus A16 TA271 infected in ICR mouse assessed as mild alveolar fibrosis in lung at 2 mg/kg, im after 5 days post infection by H and E staining based histopathological analysis; format: functional, organism-based
[20] = test system: Coxsackievirus A16; experiment: Antiviral activity against Coxsackievirus A16 TA271 infected in ICR mouse assessed as mild alveolar fibrosis in spinal muscle at 2 mg/kg, im after 5 days post infection by H and E staining based histopathological analysis; format: functional, organism-based
[21] = test system: Coxsackievirus A16; experiment: Antiviral activity against Coxsackievirus A16 TA271 infected in ICR mouse assessed as mild alveolar wall thickening in heart at 2 mg/kg, im after 5 days post infection by H and E staining based histopathological analysis; format: functional, organism-based
[22] = test system: Coxsackievirus A16; experiment: Antiviral activity against Coxsackievirus A16 TA271 infected in ICR mouse assessed as mild alveolar wall thickening in spinal muscle at 2 mg/kg, im after 5 days post infection by H and E staining based histopathological analysis; format: functional, organism-based
[23] = test system: Coxsackievirus A16; experiment: Antiviral activity against Coxsackievirus A16 TA271 infected in ICR mouse assessed as increase in inflammatory cell proliferation in spinal muscles at 0.08 uM/L preincubated with viral suspension for 2 hrs followed by intramuscular administration after 5 days post infection by H and E staining based histopathological analysis; format: functional
[24] = test system: Coxsackievirus A16; experiment: Antiviral activity against Coxsackievirus A16 TA271 infected in ICR mouse assessed as reduction in virus-induced IFN-gamma level at 2 mg/kg, im after 3 days post infection by ELISA; format: functional, organism-based
[25] = test system: Coxsackievirus A16; experiment: Antiviral activity against Coxsackievirus A16 TA271 infected in ICR mouse assessed as reduction in virus-induced IFN-gamma level at 0.08 uM/L preincubated with viral suspension for 2 hrs followed by intramuscular administration after 3 days post infection by ELISA; format: functional
[26] = test system: Coxsackievirus A16; experiment: Antiviral activity against Coxsackievirus A16 TA271 infected in ICR mouse assessed as effect on virus-induced IL-6 level at 2 mg/kg, im after 3 days post infection by ELISA; format: functional, organism-based
[27] = test system: Coxsackievirus A16; experiment: Antiviral activity against Coxsackievirus A16 TA271 infected in ICR mouse assessed as effect on virus-induced IL-6 level at 0.08 uM/L preincubated with viral suspension for 2 hrs followed by intramuscular administration after 3 days post infection by ELISA; format: functional
[28] = test system: Coxsackievirus A16; experiment: Antiviral activity against Coxsackievirus A16 TA271 infected in ICR mouse assessed as reduction in virus-induced IL-6 level at 2 mg/kg, im after 3 days post infection by ELISA; format: functional, organism-based
[29] = test system: Coxsackievirus A16; experiment: Antiviral activity against Coxsackievirus A16 TA271 infected in ICR mouse assessed as reduction in virus-induced IL-6 level at 0.08 uM/L preincubated with viral suspension for 2 hrs followed by intramuscular administration after 3 days post infection by ELISA; format: functional
[30] = test system: Mus musculus; experiment: Effect on IFN-gamma level in ICR mouse at 2 mg/kg, administered intramuscularly by ELISA; format: functional, organism-based

With `CC(=O)OC(CC=C(C)C)C1=CC(=O)c2c(O)ccc(O)c2C1=O` (stereo not given) the CC50 at 12 h [1] was 9.4 µM, the selectivity ratio [2] was 235 and the Activity [3] was “inactive”. The Activity [4] was “inactive”, the Activity [5] was “inactive” and the Activity [6] was “inactive”. The Activity [7] was “inactive”, the Activity [8] was “inactive” and the LCK [9] was >2. For the same compound, the Activity [10] was “Active”, the survival at 0.08 µM [11] was 70% and the Activity [12] was “Active”. The Activity [13] was “Active”, the Activity [14] was “Active” and the Activity [15] was “Active”. For the same compound, the Activity [16] was “Active”, the Activity [17] was “Active” and the Activity [18] was “Active”. For the same compound, the Activity [19] was “Active”, the Activity [20] was “Active” and the Activity [21] was “Active”. For the same compound, the Activity [22] was “Active”, the Activity [23] was “Active” and the Activity [24] was “Active”. For the same compound, the Activity [25] was “Active”, the Activity [26] was “inactive” and the Activity [27] was “inactive”. For the same compound, the Activity [28] was “Active”, the Activity [29] was “Active” and the Activity [30] was “inactive”.
